One compound from ChEMBL document CHEMBL1201862, “PubChem BioAssay data set” (2004) can be followed below.

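Interpolation was linear, between the two tested concentrations surrounding the appropriate level; five concentrations were tested over 48 hours in 96-well plates. GI50: concentration for 50% inhibition of growth.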 Activity calls are given as the source filed them. No stated cut-off is given here; in the data, active = GI50 up to about 1.1 µM and inactive = higher.

Some test systems named below: 786-0; A498; CAKI-1; CCRF-CEM; COLO 205; DU-145; EKVX; HCT-116; HCT-15; IGROV-1; LOX IMVI; MCF7; MDA-N; OVCAR-4; SN12C; SNB-19; SR; T47D; UACC-257; UO-31.
Assay in all cases: growth of human tumour cells (NCI), 48 h

As to `COc1ccc(-c2cc(=O)c3c(OC)c(OC)c(OC)c(OC)c3o2)cc1` [TANGERETIN], the GI50 in the assay on 786-0 is 53.6 µM (inactive); with A498, 22.8 µM (inactive); with CAKI-1 it was 53.6 µM (inactive); in the assay on CCRF-CEM, 82.6 µM (inactive); in the assay with COLO 205, 55.7 µM (inactive); in the assay on DU-145 it was 85.5 µM (inactive). Besides, the GI50 in the assay with EKVX is 49.1 µM (inactive); in the assay with HCT-116, 34 µM (inactive); in the assay with HCT-15, 35 µM; in the assay with IGROV-1, 69 µM (inactive); in the assay on LOX IMVI, 52.2 µM (inactive); in the assay with MCF7, > 100 µM (inactive). Also, the GI50 is 54.7 µM (inactive) in the assay on MDA-N; 46.1 µM (inactive) in the assay on OVCAR-4; 65.2 µM (inactive) in the assay on SN12C; > 100 µM (inactive) with SNB-19; > 100 µM (inactive) in the assay with SR; 17 µM (inactive) with T47D. Moreover, the GI50 with UACC-257 is 68.4 µM (inactive); with UO-31, 37.5 µM (inactive).
